By IC50 is commonly meant the concentration at which inhibition is half-maximal. By viability is commonly meant a read-out of living cells in per cent, often relative to untreated cells.

In experiment [1] the target is T1, human dihydroorotate dehydrogenase (DHODH) (Homo sapiens (Human), UniProt Q02127). Put plainly: DHODH enzyme assay, Assay B (DCIP absorbance, 384 well). It counts as biochemical. Conditions: 4 nM recombinant human DHODH. How it is done: (§1) Inhibition of human dihydroorotate dehydrogenase (DHODH) by example compounds as described herein was determined using one of two assays as described below.
T1 sequence (Q02127 29-395): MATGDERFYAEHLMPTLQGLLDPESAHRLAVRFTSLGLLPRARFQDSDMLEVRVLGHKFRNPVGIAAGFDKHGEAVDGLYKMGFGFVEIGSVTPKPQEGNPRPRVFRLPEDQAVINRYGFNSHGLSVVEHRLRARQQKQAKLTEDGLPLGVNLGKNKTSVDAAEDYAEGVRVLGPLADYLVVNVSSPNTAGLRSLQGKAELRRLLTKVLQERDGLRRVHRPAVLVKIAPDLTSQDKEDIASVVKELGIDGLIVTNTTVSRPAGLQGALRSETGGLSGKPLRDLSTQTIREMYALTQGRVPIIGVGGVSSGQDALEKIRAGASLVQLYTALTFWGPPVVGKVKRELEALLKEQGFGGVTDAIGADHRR
Example compounds as described herein were dispensed with an acoustic liquid handler, Echo 550 (Labcyte) to a maximum volume of 50 nl per well in a 384 well plate. DHODH enzyme assays were performed with 4 nM recombinant human DHODH (purified essentially as described by Walse et. al., Biochemistry, 47, 8929-8936 (2008)). The reaction mixture consisted of 2 mM DL-dihydroorotic acid (#D7003, Sigma-Aldrich), 100 μM 3,4-dimethoxy-5-methyl-p-benzoquinone (#D9150, Sigma-Aldrich), and 200 μM 2,6-dichlorophenolindophenol sodium salt (DCIP) (#D1878, Sigma-Aldrich) in enzyme buffer (50 mM Tris-HCl pH 8.0, 0.1% Triton X-100, 150 mM KCl) in a final volume of 50 μl per well. A stock solution of 80 mM DCIP was prepared in DMSO just before use. Loss in absorbance by chromogen DCIP was measured at 595 nm at RT every 2 min for an hour with a plate reader (Envision, Perkin Elmer).

Experiment [2] concerns the target T1, human dihydroorotate dehydrogenase (DHODH). Nature of the experiment: DHODH enzyme assay, Assay A (DCIP absorbance). The following applies: 6 nM recombinant human DHODH. It counts as biochemical. How it is done: as §1
DHODH enzyme assays were performed with 6 nM recombinant human DHODH (purified essentially as described by Walse et. al., Biochemistry, 47, 8929-8936 (2008)). The reaction mixture consisted of 1 mM DL-dihydroorotic acid (#D7003, Sigma-Aldrich), 100 μM 3,4-dimethoxy-5-methyl-p-benzoquinone (#D9150, Sigma-Aldrich), and 100 μM 2,6-dichlorophenolindophenol sodium salt (DCIP) (#D1878, Sigma-Aldrich) in enzyme buffer (50 mM Tris-HCl pH 8.0, 0.1% Triton X-100, 150 mM KCl). A stock solution of 20 mM DCIP was prepared in enzyme buffer and filtered through Whatman paper just before use. Loss in absorbance by chromogen DCIP was measured at 595 nm at RT every 3 min for an hour.

The subject of experiment [3] is ARN8 melanoma cells. Nature of the experiment: Sulforhodamine B assay of cancer cell growth and/or viability. Conditions: ARN8; 2 μM; 72 hours; absence of excess uridine. Type of experiment: cell-based. Here is the method: ARN8 melanoma cells are seeded at a density of 500 cells per well of a 96 well plate. Following 24 hours of incubation, cells are treated with increasing concentrations of the compound of Example 8 in the absence or presence of excess uridine (100 micromolar). Cells are incubated for 72 hours after which the growth medium is removed from the cells and replaced by […] of 1× sterile PBS and 50 μL of 40% trichloroacetic acid in dH2O. Samples are incubated at 4° C. for 1 h to fix the cells. The plate is then washed with 3 changes of water with all liquid allowed to drain from the plate. […] of 0.1% sulforhodamine B in 1% acetic acid in H2O is added to each well and incubated for 30 minutes. Excess dye is washed out with three changes of 1% acetic acid in H2O with all liquid allowed to drain from the plate. The remaining dye is solubilized in 100 microliters of 10 mM un-buffered basic Tris per well and absorbance read at 570 nm.
Background: In SRB staining, fixed cells bind dye roughly in proportion to their protein.

Consider `Cc1ccccc1-n1ncc2c1CCC[C@H]2NC(=O)c1ncccc1C` [Example 26, 3-methyl-N-[(4R)-1-(2-methylphenyl)-4,5,6,7-tetrahydro-1H-indazol-4-yl]pyridine-2-carboxamide], for which the IC50 in experiment [1] was determined as 0.096 µM.
Take `COc1cc(C(=O)N[C@@H]2CCCc3c2cnn3-c2ccccc2F)nc2ccccc12` [Example 38, (R)—N-(1-(2-fluorophenyl)-4,5,6,7-tetrahydro-1H-indazol-4-yl)-4-methoxyquinoline-2-carboxamide]: in experiment [1], the IC50 is 2.08 µM.
`O=C(N[C@@H]1CCCc2c1cnn2-c1ccccc1F)c1cc2ccccc2[nH]1` [Example 35, N-[(4R)-1-(2-fluorophenyl)-4,5,6,7-tetrahydro-1H-indazol-4-yl]-1H-indole-2-carboxamide]: the IC50 in experiment [1] was determined as 2.67 µM.
Same read-out and setting: next, `CC(C)OC(=O)c1cccc(-n2ncc3c2CCC[C@H]3NC(=O)c2noc3c2CCCC3)c1` [Example 52, Propan-2-yl-3-[(4R)-4-(4,5,6,7-tetrahydro-1,2-benzoxazole-3-amido)-4,5,6,7-tetrahydro-1H-indazol-1-yl]benzoate]: 0.011 µM.
On the same count and under the same terms, next, `Cc1ccccc1-n1ncc2c1CCC[C@H]2NC(=O)c1ccccn1` [Example 20, N-[(4R)-1-(2-methylphenyl)-4,5,6,7-tetrahydro-1H-indazol-4-yl]pyridine-2-carboxamide]: 0.355 µM.
Consider `Cc1cc(C(=O)NC2CCCc3c2cnn3-c2ccc(C)c(C)c2)no1` (stereo not drawn) [Example 6, N-[1-(3,4-dimethylphenyl)-4,5,6,7-tetrahydro-1H-indazol-4-yl]-5-methyl-3-isoxazolecarboxamide], for which the IC50 in experiment [2] turned out to be 5.83 µM. Moreover, the viability at 2 µM in experiment [3] turned out to be 105%.
In the case of `Cc1cnc(C(=O)N[C@@H]2CCCc3c2cnn3-c2ccccc2F)cn1` (single isomer, unassigned) [Example 15, N-[(4R*)-1-(2-fluorophenyl)-4,5,6,7-tetrahydro-1H-indazol-4-yl]-5-methylpyrazine-2-carboxamide], the IC50 in experiment [1] is 0.735 µM.
Consider `O=C(N[C@@H]1CCCc2c1cnn2-c1ccccc1F)c1nc2ccccc2o1` [Example 33, N-[(4R)-1-(2-fluorophenyl)-4,5,6,7-tetrahydro-1H-indazol-4-yl]-1,3-benzoxazole-2-carboxamide], for which the IC50 in experiment [1] amounted to 0.088 µM.
As for `O=C(N[C@@H]1CCCc2c1cnn2-c1ccccc1F)c1onc2c1CCCC2` [Example 14, N-[(4R)-1-(2-fluorophenyl)-4,5,6,7-tetrahydro-1H-indazol-4-yl]-4,5,6,7-tetrahydro-2,1-benzoxazole-3-carboxamide], the IC50 in experiment [1] came to 0.009 µM.
`COC(=O)c1ccc(C(=O)NC2CCCc3c2cnn3-c2cc(F)cc(F)c2)nc1` (stereo not drawn) [Example 9, Methyl 6-({[1-(3,5-difluorophenyl)-4,5,6,7-tetrahydro-1H-indazol-4-yl]amino}carbonyl)nicotinate]: the IC50 in experiment [2] was above 10 µM. In addition, the viability at 2 µM in experiment [3] is 8%.
The matching figures for `CSc1nc(C(=O)NC2CCCc3c2cnn3-c2ccc(F)cc2F)cs1` (stereo not drawn) [Example 11, N-[1-(2,4-difluorophenyl)-4,5,6,7-tetrahydro-1H-indazol-4-yl]-2-(methylthio)-1,3-thiazole-4-carboxamide]: 8.2 µM and 93%.
With `Cc1cccc(C(=O)N[C@@H]2CCCc3c2cnn3-c2ccccc2C)n1` [Example 45, 6-methyl-N-[(4R)-1-(2-methylphenyl)-4,5,6,7-tetrahydro-1H-indazol-4-yl]pyridine-2-carboxamide], the IC50 in experiment [1] is above 3 µM.
On the same count and under the same terms, then `Cc1ccccc1-n1ncc2c1CCC[C@H]2NC(=O)c1cc2ccccc2o1` [Example 17, N-[(4R)-1-(2-methylphenyl)-4,5,6,7-tetrahydro-1H-indazol-4-yl]-1-benzofuran-2-carboxamide], with 0.124 µM; and `O=C(N[C@@H]1CCCc2c1cnn2-c1ccccc1F)c1ncn2c1CCCC2` [Example 46, (R)—N-(1-(2-fluorophenyl)-4,5,6,7-tetrahydro-1H-indazol-4-yl)-5,6,7,8-tetrahydroimidazo[1,5-a]pyridine-1-carboxamide], with 0.006 µM.
For the compound `CCc1cc(C(=O)NC2CCCc3c2cnn3-c2ccc(F)cc2F)no1` (stereo not drawn) [Example 10, N-[1-(2,4-difluorophenyl)-4,5,6,7-tetrahydro-1H-indazol-4-yl]-5-ethyl-3-isoxazolecarboxamide], the IC50 in experiment [2] worked out at 2.44 µM. Moreover, the viability at 2 µM in experiment [3] came to 92%.
In the case of `Cc1ccccc1-n1ncc2c1CCC[C@H]2NC(=O)c1oc2ccccc2c1C` [Example 18, 3-methyl-N-[(4R)-1-(2-methylphenyl)-4,5,6,7-tetrahydro-1H-indazol-4-yl]-1-benzofuran-2-carboxamide], in experiment [1], the IC50 turned out to be 0.459 µM.
The same measure, in the same setting: then `Cc1ccc(C(=O)N[C@@H]2CCCc3c2cnn3-c2ccccc2C)nc1` [Example 24, 5-methyl-N-[(4R)-1-(2-methylphenyl)-4,5,6,7-tetrahydro-1H-indazol-4-yl]pyridine-2-carboxamide], with 0.066 µM; and `Cc1ccccc1-n1ncc2c1CCC[C@H]2NC(=O)c1cccnc1O` [Example 21, 2-hydroxy-N-[(4R)-1-(2-methylphenyl)-4,5,6,7-tetrahydro-1H-indazol-4-yl]pyridine-3-carboxamide], with 0.881 µM.
With `O=C(NC1CCCc2c1cnn2-c1ccc(F)cc1F)c1onc2c1CCCC2` (stereo not drawn) [Example 5, N-(1-(2,4-difluorophenyl)-4,5,6,7-tetrahydro-1H-indazol-4-yl)-4,5,6,7-tetrahydrobenzo[c]isoxazole-3-carboxamide], the IC50 in experiment [2] worked out at 0.29 µM. For the same compound, the viability at 2 µM in experiment [3] was 22%.
As for `O=C(N[C@@H]1CCCc2c1cnn2-c1ccccc1F)c1ccccn1` [Example 3, (R)—N-(1-(2-fluorophenyl)-4,5,6,7-tetrahydro-1H-indazol-4-yl)picolinamide], the viability at 2 µM in experiment [3] stood at 30%.
On to `O=C(N[C@@H]1CCCc2c1cnn2-c1cccc(C(=O)N2CCOCC2)c1)c1noc2c1CCCC2` [Example 53, N-[(4R)-1-[3-(morpholine-4-carbonyl)phenyl]-4,5,6,7-tetrahydro-4H-indazol-4-yl]-4,5,6,7-tetrahydro-1,2-benzoxazole-3-carboxamide], for which the IC50 in experiment [1] is 0.22 µM.
Turning to `Cc1ccnc(C(=O)NC2CCCc3c2cnn3-c2ccccc2)c1` (stereo not drawn) [Example 43, 4-methyl-N-(1-phenyl-4,5,6,7-tetrahydro-1H-indazol-4-yl)pyridine-2-carboxamide], in experiment [1], the IC50 is 0.441 µM.
For `O=C(N[C@@H]1CCCc2c1cnn2-c1ccccc1F)c1noc2ccccc12` [Example 28, N-[(4R)-1-(2-fluorophenyl)-4,5,6,7-tetrahydro-1H-indazol-4-yl]-1,2-benzoxazole-3-carboxamide], the IC50 in experiment [1] amounted to 0.018 µM.
For the compound `O=C(NC1CCCc2c1cnn2-c1ccccc1F)c1cscn1` (stereo not drawn) [Example 4, N-[1-(2-fluorophenyl)-4,5,6,7-tetrahydro-1H-indazol-4-yl]-1,3-thiazole-4-carboxamide], the IC50 in experiment [2] came out at 1.11 µM. For the same compound, the viability at 2 µM in experiment [3] is 52%.
With `O=C(N[C@H]1CCCc2c1cnn2-c1ccccc1F)c1ccccn1` [Example 2, (S)—N-(1-(2-Fluorophenyl)-4,5,6,7-tetrahydro-1H-indazol-4-yl)picolinamide], in experiment [3], the viability at 2 µM amounted to 100%.
As for `O=C(N[C@@H]1CCCc2c1cnn2-c1ccccc1F)c1ccc(C(F)(F)F)cn1` [Example 40, N-[(4R)-1-(2-fluorophenyl)-4,5,6,7-tetrahydro-1H-indazol-4-yl]-5-(trifluoromethyl)pyridine-2-carboxamide], in experiment [1], the IC50 turned out to be 2 µM.
As for `Cc1ccccc1-n1ncc2c1CCC[C@H]2NC(=O)c1sccc1C` [Example 19, 3-methyl-N-[(4R)-1-(2-methylphenyl)-4,5,6,7-tetrahydro-1H-indazol-4-yl]thiophene-2-carboxamide], in experiment [1], the IC50 was 0.136 µM.

The values are drawn from patent publication US10889564B2, “Tetrahydroindazoles and medical uses thereof” (Genase Therapeutics B.V., priority 2015, dated 2021).
